Measured values published in ChEMBL document CHEMBL1201862, “PubChem BioAssay data set” (2004).
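Dose response: 5 concentrations. Exposure: 48 h. Format: 96-well plates. Endpoint: linear interpolation; highest concentration if not reached. GI50: concentration for 50% inhibition of growth.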 Activity calls are given as the source filed them. Cut-off read from the data, not from the text of the source: active = GI50 up to about 1.1 µM and inactive = higher.

Assays:
Assay in all cases: growth of human tumour cells (NCI), 48 h
[1] = tested on: IGROV-1
[2] = tested on: M19-MEL
[3] = tested on: A498
[4] = tested on: SK-MEL-2
[5] = tested on: DMS-273
[6] = tested on: A549
[7] = tested on: UACC-257
[8] = tested on: HOP-92
[9] = tested on: HCC 2998
[10] = tested on: SF-268
[11] = tested on: EKVX
[12] = tested on: MOLT-4
[13] = tested on: RPMI-8226
[14] = tested on: MCF7
[15] = tested on: SK-OV-3
[16] = tested on: SN12C
[17] = tested on: OVCAR-4
[18] = tested on: U-251
[19] = tested on: NCI-H23
[20] = tested on: HOP-18

Measured: GI50

COc1ccc(O)c(C#N)c1C#N.COc1ccc(OC)c(C#N)c1C#N
inactive: [1] > 100 µM | [2] > 100 µM | [3] > 100 µM | [4] > 100 µM | [5] > 100 µM | [6] > 100 µM | [7] > 100 µM | [8] > 100 µM | [9] > 100 µM | [10] > 100 µM | [11] 23.7 µM | [12] > 100 µM | [13] > 100 µM | [14] > 100 µM | [15] > 100 µM | [16] > 100 µM | [17] > 100 µM | [18] > 100 µM | [19] > 100 µM

CNC(=O)OCc1c(CO)nc(SC)n1C
inactive: [1] > 100 µM | [2] > 100 µM | [20] > 100 µM | [3] > 100 µM | [4] > 100 µM | [5] > 100 µM | [6] > 100 µM | [7] > 100 µM | [8] > 100 µM | [9] > 100 µM | [10] > 100 µM | [11] > 100 µM | [12] > 100 µM | [13] > 100 µM | [14] > 100 µM | [15] > 100 µM | [16] > 100 µM | [17] > 100 µM | [18] > 100 µM | [19] > 100 µM

O=C(O)c1ccccc1/N=C/c1ccc(N(CCCl)CCCl)cc1
inactive: [1] > 100 µM | [2] > 100 µM | [20] > 100 µM | [3] > 40.5 µM | [4] > 100 µM | [5] 81.1 µM | [6] > 100 µM | [7] > 78 µM | [8] > 100 µM | [9] > 100 µM | [10] > 72.4 µM | [11] 64.1 µM | [12] 36.6 µM | [13] > 100 µM | [14] > 84.7 µM | [15] > 91.2 µM | [16] > 85.5 µM | [17] > 100 µM | [18] 78 µM | [19] 47.6 µM

CCOC(=O)Cn1c(=O)ccn(COCCO)c1=O
inactive: [1] > 100 µM | [3] > 100 µM | [4] > 100 µM | [6] > 100 µM | [7] > 100 µM | [8] > 100 µM | [9] > 100 µM | [10] > 100 µM | [11] > 100 µM | [12] > 100 µM | [13] > 100 µM | [14] > 100 µM | [16] > 100 µM | [17] > 100 µM | [18] > 100 µM | [19] > 100 µM

CC(C)=CC1C(C(=O)O)C1(C)C (stereo not given) [CHRYSANTHEMIC ACID]
inactive: [1] > 750 µM | [2] > 750 µM | [20] 197 µM | [3] 24 µM | [4] > 750 µM | [5] > 750 µM | [6] > 750 µM | [7] > 750 µM | [8] 520 µM | [9] > 750 µM | [10] > 750 µM | [11] > 750 µM | [12] > 750 µM | [13] > 750 µM | [14] > 750 µM | [15] > 750 µM | [16] > 724 µM | [17] > 750 µM | [18] > 750 µM | [19] > 750 µM
